Laboratory results reported in PubChem BioAssay (NCI).
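96-well plates; 48 h exposure; 5 concentrations. Endpoints by linear interpolation between flanking doses. Not reached: highest tested concentration assigned. TGI denotes the concentration required for complete inhibition of growth.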

Tests used:
Experiment in all cases: NCI-60 cell line screen, 48 h
786-0 renal = system: 786-0 renal
A498 renal = system: A498 renal
A549 NSCLC = system: A549 NSCLC
ACHN renal = system: ACHN renal
CCRF-CEM leukemia = system: CCRF-CEM leukemia
DLD-1 colon = system: DLD-1 colon
DMS 114 small cell lung = system: DMS 114 small cell lung
DMS 273 small cell lung = system: DMS 273 small cell lung
EKVX NSCLC = system: EKVX NSCLC
HCC-2998 colon = system: HCC-2998 colon
HCT-116 colon = system: HCT-116 colon
HCT-15 colon = system: HCT-15 colon
HL-60(TB) leukemia = system: HL-60(TB) leukemia
HOP-62 NSCLC = system: HOP-62 NSCLC
IGROV1 ovarian = system: IGROV1 ovarian
K-562 leukemia = system: K-562 leukemia
KM12 colon = system: KM12 colon
KM20L2 colon = system: KM20L2 colon
LOX IMVI melanoma = system: LOX IMVI melanoma
LXFL 529 NSCLC = system: LXFL 529 NSCLC
M14 melanoma = system: M14 melanoma
M19-MEL melanoma = system: M19-MEL melanoma
MALME-3M melanoma = system: MALME-3M melanoma
MOLT-4 leukemia = system: MOLT-4 leukemia
NCI-H23 lung = system: NCI-H23 lung
NCI-H460 lung = system: NCI-H460 lung
NCI-H522 lung = system: NCI-H522 lung
OVCAR-3 ovarian = system: OVCAR-3 ovarian
OVCAR-5 ovarian = system: OVCAR-5 ovarian
OVCAR-8 ovarian = system: OVCAR-8 ovarian
RPMI-8226 leukemia = system: RPMI-8226 leukemia
RXF 393 renal = system: RXF 393 renal
SF-268 CNS = system: SF-268 CNS
SF-295 CNS = system: SF-295 CNS
SF-539 CNS = system: SF-539 CNS
SK-MEL-2 melanoma = system: SK-MEL-2 melanoma
SK-MEL-28 melanoma = system: SK-MEL-28 melanoma
SK-MEL-5 melanoma = system: SK-MEL-5 melanoma
SK-OV-3 ovarian = system: SK-OV-3 ovarian
SN12C renal = system: SN12C renal
SNB-19 CNS = system: SNB-19 CNS
SNB-78 CNS = system: SNB-78 CNS
SR leukemia = system: SR leukemia
SW-620 colon = system: SW-620 colon
TK-10 renal = system: TK-10 renal
U251 CNS = system: U251 CNS
UACC-62 melanoma = system: UACC-62 melanoma
UO-31 renal = system: UO-31 renal
XF 498 CNS = system: XF 498 CNS
CAKI-1 renal = system: CAKI-1 renal
COLO 205 colon = system: COLO 205 colon
HOP-92 NSCLC = system: HOP-92 NSCLC
HT29 colon = system: HT29 colon
NCI-H226 lung = system: NCI-H226 lung
OVCAR-4 ovarian = system: OVCAR-4 ovarian
UACC-257 melanoma = system: UACC-257 melanoma
SNB-75 CNS = system: SNB-75 CNS

## Cc1ccc(C2NC(=O)c3ccccc3N2)s1 (stereo unspecified)
786-0 renal
  TGI: > 100 µM
A498 renal
  TGI: > 100 µM
A549 NSCLC
  TGI: > 100 µM
ACHN renal
  TGI: > 100 µM
CCRF-CEM leukemia
  TGI: > 100 µM
DLD-1 colon
  TGI: > 100 µM
DMS 114 small cell lung
  TGI: > 100 µM
DMS 273 small cell lung
  TGI: > 100 µM
EKVX NSCLC
  TGI: > 100 µM
HCC-2998 colon
  TGI: 39.7 µM
HCT-116 colon
  TGI: > 100 µM
HCT-15 colon
  TGI: > 100 µM
HL-60(TB) leukemia
  TGI: 8.17 µM
HOP-62 NSCLC
  TGI: > 100 µM
IGROV1 ovarian
  TGI: > 100 µM
K-562 leukemia
  TGI: > 100 µM
KM12 colon
  TGI: > 100 µM
KM20L2 colon
  TGI: 39.3 µM
LOX IMVI melanoma
  TGI: > 100 µM
LXFL 529 NSCLC
  TGI: > 100 µM
M14 melanoma
  TGI: > 100 µM
M19-MEL melanoma
  TGI: > 100 µM
MALME-3M melanoma
  TGI: > 100 µM
MOLT-4 leukemia
  TGI: > 100 µM
NCI-H23 lung
  TGI: 58.2 µM
NCI-H460 lung
  TGI: 58.4 µM
NCI-H522 lung
  TGI: 18.6 µM
OVCAR-3 ovarian
  TGI: 50.2 µM
OVCAR-5 ovarian
  TGI: > 100 µM
OVCAR-8 ovarian
  TGI: 54.2 µM
RPMI-8226 leukemia
  TGI: > 100 µM
RXF 393 renal
  TGI: > 100 µM
SF-268 CNS
  TGI: > 100 µM
SF-295 CNS
  TGI: 6.87 µM
SF-539 CNS
  TGI: 14.4 µM
SK-MEL-2 melanoma
  TGI: 42 µM
SK-MEL-28 melanoma
  TGI: > 100 µM
SK-MEL-5 melanoma
  TGI: > 100 µM
SK-OV-3 ovarian
  TGI: 91.6 µM
SN12C renal
  TGI: 52.8 µM
SNB-19 CNS
  TGI: > 100 µM
SNB-78 CNS
  TGI: > 100 µM
SR leukemia
  TGI: > 100 µM
SW-620 colon
  TGI: > 100 µM
TK-10 renal
  TGI: > 100 µM
U251 CNS
  TGI: > 100 µM
UACC-62 melanoma
  TGI: > 100 µM
UO-31 renal
  TGI: > 100 µM
XF 498 CNS
  TGI: 19 µM

## COc1ccc(NC(=O)CC/C(CC(=O)C(C)(C)C)=N\NC(=O)C(N)=O)cc1
786-0 renal
  TGI: > 100 µM
A549 NSCLC
  TGI: > 100 µM
ACHN renal
  TGI: > 100 µM
CAKI-1 renal
  TGI: > 100 µM
CCRF-CEM leukemia
  TGI: > 100 µM
COLO 205 colon
  TGI: > 100 µM
DLD-1 colon
  TGI: > 100 µM
DMS 114 small cell lung
  TGI: > 100 µM
EKVX NSCLC
  TGI: > 100 µM
HCC-2998 colon
  TGI: > 100 µM
HCT-116 colon
  TGI: > 100 µM
HCT-15 colon
  TGI: > 100 µM
HL-60(TB) leukemia
  TGI: > 100 µM
HOP-62 NSCLC
  TGI: > 100 µM
HOP-92 NSCLC
  TGI: > 100 µM
HT29 colon
  TGI: > 100 µM
IGROV1 ovarian
  TGI: > 100 µM
K-562 leukemia
  TGI: > 100 µM
KM12 colon
  TGI: > 100 µM
KM20L2 colon
  TGI: > 100 µM
LOX IMVI melanoma
  TGI: > 100 µM
LXFL 529 NSCLC
  TGI: > 100 µM
M14 melanoma
  TGI: > 100 µM
M19-MEL melanoma
  TGI: > 100 µM
MALME-3M melanoma
  TGI: > 100 µM
MOLT-4 leukemia
  TGI: > 100 µM
NCI-H226 lung
  TGI: > 100 µM
NCI-H23 lung
  TGI: > 100 µM
NCI-H460 lung
  TGI: > 100 µM
OVCAR-3 ovarian
  TGI: > 100 µM
OVCAR-4 ovarian
  TGI: > 100 µM
OVCAR-5 ovarian
  TGI: > 100 µM
OVCAR-8 ovarian
  TGI: > 100 µM
RXF 393 renal
  TGI: > 100 µM
SF-268 CNS
  TGI: > 100 µM
SF-295 CNS
  TGI: > 100 µM
SF-539 CNS
  TGI: > 100 µM
SK-MEL-2 melanoma
  TGI: > 100 µM
SK-MEL-28 melanoma
  TGI: > 100 µM
SK-OV-3 ovarian
  TGI: > 100 µM
SN12C renal
  TGI: > 100 µM
SNB-19 CNS
  TGI: > 100 µM
SR leukemia
  TGI: > 100 µM
SW-620 colon
  TGI: > 100 µM
U251 CNS
  TGI: > 100 µM
UACC-257 melanoma
  TGI: > 100 µM
UACC-62 melanoma
  TGI: > 100 µM
UO-31 renal
  TGI: > 100 µM

## O=C(c1ccccc1)c1oc2ccc(Br)cc2c1-c1cnn(-c2ccccc2)c1
786-0 renal
  TGI: > 100 µM
ACHN renal
  TGI: > 100 µM
CAKI-1 renal
  TGI: > 100 µM
CCRF-CEM leukemia
  TGI: > 100 µM
COLO 205 colon
  TGI: > 100 µM
DLD-1 colon
  TGI: > 100 µM
DMS 114 small cell lung
  TGI: > 100 µM
DMS 273 small cell lung
  TGI: > 100 µM
HCC-2998 colon
  TGI: > 100 µM
HCT-15 colon
  TGI: > 100 µM
HL-60(TB) leukemia
  TGI: > 100 µM
HOP-62 NSCLC
  TGI: > 100 µM
HOP-92 NSCLC
  TGI: > 100 µM
HT29 colon
  TGI: > 100 µM
IGROV1 ovarian
  TGI: > 100 µM
K-562 leukemia
  TGI: > 100 µM
KM12 colon
  TGI: > 100 µM
KM20L2 colon
  TGI: > 100 µM
LOX IMVI melanoma
  TGI: > 100 µM
LXFL 529 NSCLC
  TGI: > 100 µM
M14 melanoma
  TGI: > 100 µM
M19-MEL melanoma
  TGI: > 100 µM
MALME-3M melanoma
  TGI: > 100 µM
MOLT-4 leukemia
  TGI: > 100 µM
NCI-H23 lung
  TGI: > 100 µM
NCI-H460 lung
  TGI: > 100 µM
NCI-H522 lung
  TGI: > 100 µM
OVCAR-3 ovarian
  TGI: > 100 µM
OVCAR-4 ovarian
  TGI: > 100 µM
OVCAR-5 ovarian
  TGI: > 100 µM
RPMI-8226 leukemia
  TGI: > 100 µM
RXF 393 renal
  TGI: > 100 µM
SF-268 CNS
  TGI: > 100 µM
SF-295 CNS
  TGI: > 100 µM
SK-MEL-2 melanoma
  TGI: > 100 µM
SK-MEL-28 melanoma
  TGI: > 100 µM
SK-OV-3 ovarian
  TGI: > 100 µM
SN12C renal
  TGI: > 100 µM
SNB-19 CNS
  TGI: > 100 µM
SNB-75 CNS
  TGI: > 100 µM
SNB-78 CNS
  TGI: > 100 µM
UACC-257 melanoma
  TGI: > 100 µM
UACC-62 melanoma
  TGI: > 100 µM
UO-31 renal
  TGI: > 100 µM
XF 498 CNS
  TGI: > 100 µM

## CC(=O)O[C@H]1CCC2[C@@H]3CCC4=C(O)C(=O)C(C#N)C[C@]4(C)C3CC[C@@]21C (stereo partly specified)
786-0 renal
  TGI: > 100 µM
A498 renal
  TGI: 0.891 µM
A549 NSCLC
  TGI: > 100 µM
ACHN renal
  TGI: > 100 µM
CCRF-CEM leukemia
  TGI: > 100 µM
COLO 205 colon
  TGI: 84.4 µM
DLD-1 colon
  TGI: > 100 µM
DMS 114 small cell lung
  TGI: 81.1 µM
DMS 273 small cell lung
  TGI: > 100 µM
EKVX NSCLC
  TGI: > 100 µM
HCC-2998 colon
  TGI: > 100 µM
HCT-116 colon
  TGI: > 100 µM
HCT-15 colon
  TGI: > 100 µM
HL-60(TB) leukemia
  TGI: 85.3 µM
HOP-62 NSCLC
  TGI: > 100 µM
HOP-92 NSCLC
  TGI: 8.33 µM
HT29 colon
  TGI: > 100 µM
IGROV1 ovarian
  TGI: > 100 µM
K-562 leukemia
  TGI: > 100 µM
KM12 colon
  TGI: > 100 µM
KM20L2 colon
  TGI: > 100 µM
LOX IMVI melanoma
  TGI: > 100 µM
LXFL 529 NSCLC
  TGI: > 100 µM
M14 melanoma
  TGI: > 100 µM
M19-MEL melanoma
  TGI: > 100 µM
MALME-3M melanoma
  TGI: > 100 µM
MOLT-4 leukemia
  TGI: > 100 µM
NCI-H226 lung
  TGI: > 100 µM
NCI-H23 lung
  TGI: > 100 µM
NCI-H460 lung
  TGI: > 100 µM
OVCAR-3 ovarian
  TGI: > 100 µM
OVCAR-4 ovarian
  TGI: 90.9 µM
OVCAR-5 ovarian
  TGI: > 100 µM
OVCAR-8 ovarian
  TGI: > 100 µM
RPMI-8226 leukemia
  TGI: > 100 µM
RXF 393 renal
  TGI: > 100 µM
SF-268 CNS
  TGI: > 100 µM
SF-295 CNS
  TGI: > 100 µM
SF-539 CNS
  TGI: > 100 µM
SK-MEL-2 melanoma
  TGI: > 100 µM
SK-MEL-28 melanoma
  TGI: > 100 µM
SK-MEL-5 melanoma
  TGI: 71.1 µM
SK-OV-3 ovarian
  TGI: > 100 µM
SN12C renal
  TGI: > 100 µM
SNB-19 CNS
  TGI: > 100 µM
SNB-75 CNS
  TGI: 72.1 µM
SNB-78 CNS
  TGI: > 100 µM
SW-620 colon
  TGI: > 100 µM
TK-10 renal
  TGI: > 100 µM
U251 CNS
  TGI: > 100 µM
UACC-257 melanoma
  TGI: > 100 µM
UACC-62 melanoma
  TGI: > 100 µM
UO-31 renal
  TGI: > 100 µM
XF 498 CNS
  TGI: > 100 µM
